Patent US20220218715A1, “NOVEL USE OF PYRROLO-PYRIDINE DERIVATIVE COMPOUND FOR PREVENTION AND/OR TREATMENT OF CANCER” (VORONOI CO., LTD., priority 2019, published 2022)

What was measured:
ALK(C1156Y) = target: T1, ALK(C1156Y) (Homo sapiens, UniProt Q9UM73, C1156Y); assay: scanMAX Kinase analysis panel (DiscoverX); format: binding; conditions: 1 μM in DMSO
T1 construct: purchased DiscoverX
Description: (§1) [(Example Compound−Positive Control)/(Negative Control−Positive Control)×100]

LRRK2 = target: T2, LRRK2 (Homo sapiens, UniProt Q5S007); assay: scanMAX Kinase analysis panel (DiscoverX); format: binding; conditions: 1 μM in DMSO
T2 construct: purchased DiscoverX scanMAX Kinase analysis panel
Description: as §1

PHKG1 = target: T3, PHKG1 (Homo sapiens, UniProt Q16816); assay: scanMAX Kinase analysis panel (DiscoverX); format: binding; conditions: 1 μM in DMSO
T3 construct: purchased DiscoverX
T3 sequence (Q16816 whole entry): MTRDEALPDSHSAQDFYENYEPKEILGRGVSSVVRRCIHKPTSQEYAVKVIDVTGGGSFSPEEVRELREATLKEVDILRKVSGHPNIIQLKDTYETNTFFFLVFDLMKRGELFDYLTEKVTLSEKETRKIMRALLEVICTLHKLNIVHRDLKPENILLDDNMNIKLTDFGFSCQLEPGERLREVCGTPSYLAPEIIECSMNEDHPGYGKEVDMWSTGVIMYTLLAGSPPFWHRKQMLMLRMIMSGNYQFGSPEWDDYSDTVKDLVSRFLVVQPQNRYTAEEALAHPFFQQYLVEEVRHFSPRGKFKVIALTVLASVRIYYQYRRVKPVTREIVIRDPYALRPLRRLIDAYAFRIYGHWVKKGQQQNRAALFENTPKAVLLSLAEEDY
Description: as §1

MYLK = target: T4, MYLK (Homo sapiens, UniProt Q15746); assay: scanMAX Kinase analysis panel (DiscoverX); format: binding; conditions: 1 μM in DMSO
T4 construct: purchased DiscoverX
Description: as §1

ABL1-nonphosphorylated = target: T5, ABL1-nonphosphorylated (Homo sapiens, UniProt P00519); assay: scanMAX Kinase analysis panel (DiscoverX); format: binding; conditions: 1 μM in DMSO
T5 construct: purchased DiscoverX
T5 sequence (P00519 whole entry): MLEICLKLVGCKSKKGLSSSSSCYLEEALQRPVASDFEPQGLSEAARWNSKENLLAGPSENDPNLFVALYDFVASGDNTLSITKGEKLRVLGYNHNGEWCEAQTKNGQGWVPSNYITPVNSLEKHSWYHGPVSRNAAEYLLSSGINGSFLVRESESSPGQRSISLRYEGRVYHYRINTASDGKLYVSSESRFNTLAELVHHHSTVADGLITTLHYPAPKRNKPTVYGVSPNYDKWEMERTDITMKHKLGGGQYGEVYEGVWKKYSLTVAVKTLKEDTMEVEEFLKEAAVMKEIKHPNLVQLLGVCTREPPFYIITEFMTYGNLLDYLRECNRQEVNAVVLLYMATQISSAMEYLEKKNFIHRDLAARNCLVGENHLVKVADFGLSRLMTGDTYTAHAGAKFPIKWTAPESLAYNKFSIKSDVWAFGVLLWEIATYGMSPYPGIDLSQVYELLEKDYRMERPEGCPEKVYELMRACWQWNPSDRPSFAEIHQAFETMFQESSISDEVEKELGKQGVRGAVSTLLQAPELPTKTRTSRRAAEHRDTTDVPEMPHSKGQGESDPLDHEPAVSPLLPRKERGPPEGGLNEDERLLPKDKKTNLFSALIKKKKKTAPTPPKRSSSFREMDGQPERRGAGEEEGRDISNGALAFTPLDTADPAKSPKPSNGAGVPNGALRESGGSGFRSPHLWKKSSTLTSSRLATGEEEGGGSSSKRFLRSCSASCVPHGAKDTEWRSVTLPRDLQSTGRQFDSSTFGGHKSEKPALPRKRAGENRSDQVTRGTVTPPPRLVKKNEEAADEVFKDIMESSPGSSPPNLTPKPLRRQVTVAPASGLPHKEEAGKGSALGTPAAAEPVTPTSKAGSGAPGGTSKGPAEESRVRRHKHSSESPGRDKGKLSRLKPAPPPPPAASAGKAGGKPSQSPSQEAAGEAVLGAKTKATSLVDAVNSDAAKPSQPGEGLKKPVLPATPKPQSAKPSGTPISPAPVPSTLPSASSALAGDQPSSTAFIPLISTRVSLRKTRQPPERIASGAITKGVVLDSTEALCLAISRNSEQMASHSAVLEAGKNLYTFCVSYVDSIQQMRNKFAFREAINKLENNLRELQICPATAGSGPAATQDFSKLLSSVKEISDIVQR
Description: as §1

STK33 = target: T6, STK33 (Homo sapiens, UniProt Q9BYT3); assay: scanMAX Kinase analysis panel (DiscoverX); format: binding; conditions: 1 μM in DMSO
T6 construct: purchased DiscoverX
T6 sequence (Q9BYT3 whole entry): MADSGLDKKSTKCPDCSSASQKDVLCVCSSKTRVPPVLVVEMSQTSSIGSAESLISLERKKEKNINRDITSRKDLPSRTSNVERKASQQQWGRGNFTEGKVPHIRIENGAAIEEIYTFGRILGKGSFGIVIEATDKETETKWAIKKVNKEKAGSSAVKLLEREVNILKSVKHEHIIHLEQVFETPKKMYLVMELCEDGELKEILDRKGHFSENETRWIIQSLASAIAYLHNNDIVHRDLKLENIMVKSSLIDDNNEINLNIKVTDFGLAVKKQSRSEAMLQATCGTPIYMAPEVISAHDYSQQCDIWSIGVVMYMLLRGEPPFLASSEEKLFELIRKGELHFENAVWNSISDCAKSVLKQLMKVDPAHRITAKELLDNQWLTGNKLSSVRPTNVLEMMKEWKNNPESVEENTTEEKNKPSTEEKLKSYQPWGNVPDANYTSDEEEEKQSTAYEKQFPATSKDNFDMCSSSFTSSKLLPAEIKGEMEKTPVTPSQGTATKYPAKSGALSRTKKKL
Description: as §1

[1] = target: T7, JAK1 (JH2domain-psudokinase) (Homo sapiens, UniProt P23458); assay: scanMAX Kinase analysis panel (DiscoverX); format: binding; conditions: 1 μM in DMSO
T7 construct: JAK1 (JH2domain-pseudokinase); purchased DiscoverX scanMAX Kinase analysis panel
Description: as §1

JNK1 = target: T8, JNK1 (Homo sapiens, UniProt P45983); assay: scanMAX Kinase analysis panel (DiscoverX); format: binding; conditions: 1 μM in DMSO
T8 construct: purchased DiscoverX
T8 sequence (P45983 whole entry): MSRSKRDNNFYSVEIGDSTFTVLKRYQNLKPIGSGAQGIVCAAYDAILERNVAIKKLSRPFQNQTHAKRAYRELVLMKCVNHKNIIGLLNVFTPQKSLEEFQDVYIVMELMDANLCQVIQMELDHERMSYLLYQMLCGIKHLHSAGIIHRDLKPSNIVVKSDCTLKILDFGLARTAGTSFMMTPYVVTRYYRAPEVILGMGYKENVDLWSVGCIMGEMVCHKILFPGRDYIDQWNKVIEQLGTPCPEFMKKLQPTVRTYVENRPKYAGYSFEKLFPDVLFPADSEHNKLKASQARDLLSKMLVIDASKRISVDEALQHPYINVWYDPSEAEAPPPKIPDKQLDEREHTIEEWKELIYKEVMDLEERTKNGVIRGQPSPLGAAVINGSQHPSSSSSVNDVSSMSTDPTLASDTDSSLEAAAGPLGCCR
Description: as §1

MAPKAPK2 = target: T9, MAPKAPK2 (Homo sapiens, UniProt P49137); assay: scanMAX Kinase analysis panel (DiscoverX); format: binding; conditions: 1 μM in DMSO
T9 construct: purchased DiscoverX scanMAX Kinase analysis panel
Description: as §1

PLK4 = target: T10, PLK4 (Homo sapiens, UniProt O00444); assay: scanMAX Kinase analysis panel (DiscoverX); format: binding; conditions: 1 μM in DMSO
T10 construct: purchased DiscoverX scanMAX Kinase analysis panel
T10 sequence (O00444 whole entry): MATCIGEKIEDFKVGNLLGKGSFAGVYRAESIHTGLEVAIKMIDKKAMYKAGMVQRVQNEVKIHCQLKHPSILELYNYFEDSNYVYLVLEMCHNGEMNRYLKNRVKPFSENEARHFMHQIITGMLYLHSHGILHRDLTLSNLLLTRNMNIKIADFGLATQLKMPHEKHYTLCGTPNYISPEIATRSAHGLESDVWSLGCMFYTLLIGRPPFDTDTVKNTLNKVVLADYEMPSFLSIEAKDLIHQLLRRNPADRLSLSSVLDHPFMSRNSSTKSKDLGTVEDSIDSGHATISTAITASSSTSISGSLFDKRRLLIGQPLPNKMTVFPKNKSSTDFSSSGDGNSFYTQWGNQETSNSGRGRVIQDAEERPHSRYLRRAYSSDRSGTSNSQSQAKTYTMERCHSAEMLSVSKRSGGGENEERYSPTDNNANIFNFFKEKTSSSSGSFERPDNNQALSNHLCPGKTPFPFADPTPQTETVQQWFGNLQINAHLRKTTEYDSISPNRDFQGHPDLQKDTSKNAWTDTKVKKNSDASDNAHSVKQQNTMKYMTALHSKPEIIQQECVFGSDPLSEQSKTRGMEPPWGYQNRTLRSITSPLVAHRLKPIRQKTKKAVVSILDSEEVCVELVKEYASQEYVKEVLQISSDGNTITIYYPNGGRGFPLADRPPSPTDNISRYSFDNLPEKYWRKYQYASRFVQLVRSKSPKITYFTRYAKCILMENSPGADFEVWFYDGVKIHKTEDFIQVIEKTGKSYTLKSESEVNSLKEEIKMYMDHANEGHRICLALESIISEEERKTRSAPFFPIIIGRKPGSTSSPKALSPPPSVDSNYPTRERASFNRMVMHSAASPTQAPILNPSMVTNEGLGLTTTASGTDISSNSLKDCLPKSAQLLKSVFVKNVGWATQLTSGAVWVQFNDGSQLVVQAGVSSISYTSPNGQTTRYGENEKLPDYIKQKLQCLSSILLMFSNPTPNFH
Description: as §1

PHKG2 = target: T11, PHKG2 (Homo sapiens, UniProt P15735); assay: scanMAX Kinase analysis panel (DiscoverX); format: binding; conditions: 1 μM in DMSO
T11 construct: purchased DiscoverX
Description: as §1

LRRK2 (G2019S) = target: T12, LRRK2 (G2019S) (Homo sapiens, UniProt Q5S007, G2019S); assay: scanMAX Kinase analysis panel (DiscoverX); format: binding; conditions: 1 μM in DMSO
T12 construct: purchased DiscoverX
Description: as §1

ALK (L1196M) = target: T13, ALK (L1196M) (Homo sapiens, UniProt Q9UM73, L1196M); assay: scanMAX Kinase analysis panel (DiscoverX); format: binding; conditions: 1 μM in DMSO
T13 construct: purchased DiscoverX
Description: as §1

ALK = target: T14, ALK (Homo sapiens, UniProt Q9UM73); assay: scanMAX Kinase analysis panel (DiscoverX); format: binding; conditions: 1 μM in DMSO
T14 construct: purchased DiscoverX
T14 sequence (Q9UM73 19-1620): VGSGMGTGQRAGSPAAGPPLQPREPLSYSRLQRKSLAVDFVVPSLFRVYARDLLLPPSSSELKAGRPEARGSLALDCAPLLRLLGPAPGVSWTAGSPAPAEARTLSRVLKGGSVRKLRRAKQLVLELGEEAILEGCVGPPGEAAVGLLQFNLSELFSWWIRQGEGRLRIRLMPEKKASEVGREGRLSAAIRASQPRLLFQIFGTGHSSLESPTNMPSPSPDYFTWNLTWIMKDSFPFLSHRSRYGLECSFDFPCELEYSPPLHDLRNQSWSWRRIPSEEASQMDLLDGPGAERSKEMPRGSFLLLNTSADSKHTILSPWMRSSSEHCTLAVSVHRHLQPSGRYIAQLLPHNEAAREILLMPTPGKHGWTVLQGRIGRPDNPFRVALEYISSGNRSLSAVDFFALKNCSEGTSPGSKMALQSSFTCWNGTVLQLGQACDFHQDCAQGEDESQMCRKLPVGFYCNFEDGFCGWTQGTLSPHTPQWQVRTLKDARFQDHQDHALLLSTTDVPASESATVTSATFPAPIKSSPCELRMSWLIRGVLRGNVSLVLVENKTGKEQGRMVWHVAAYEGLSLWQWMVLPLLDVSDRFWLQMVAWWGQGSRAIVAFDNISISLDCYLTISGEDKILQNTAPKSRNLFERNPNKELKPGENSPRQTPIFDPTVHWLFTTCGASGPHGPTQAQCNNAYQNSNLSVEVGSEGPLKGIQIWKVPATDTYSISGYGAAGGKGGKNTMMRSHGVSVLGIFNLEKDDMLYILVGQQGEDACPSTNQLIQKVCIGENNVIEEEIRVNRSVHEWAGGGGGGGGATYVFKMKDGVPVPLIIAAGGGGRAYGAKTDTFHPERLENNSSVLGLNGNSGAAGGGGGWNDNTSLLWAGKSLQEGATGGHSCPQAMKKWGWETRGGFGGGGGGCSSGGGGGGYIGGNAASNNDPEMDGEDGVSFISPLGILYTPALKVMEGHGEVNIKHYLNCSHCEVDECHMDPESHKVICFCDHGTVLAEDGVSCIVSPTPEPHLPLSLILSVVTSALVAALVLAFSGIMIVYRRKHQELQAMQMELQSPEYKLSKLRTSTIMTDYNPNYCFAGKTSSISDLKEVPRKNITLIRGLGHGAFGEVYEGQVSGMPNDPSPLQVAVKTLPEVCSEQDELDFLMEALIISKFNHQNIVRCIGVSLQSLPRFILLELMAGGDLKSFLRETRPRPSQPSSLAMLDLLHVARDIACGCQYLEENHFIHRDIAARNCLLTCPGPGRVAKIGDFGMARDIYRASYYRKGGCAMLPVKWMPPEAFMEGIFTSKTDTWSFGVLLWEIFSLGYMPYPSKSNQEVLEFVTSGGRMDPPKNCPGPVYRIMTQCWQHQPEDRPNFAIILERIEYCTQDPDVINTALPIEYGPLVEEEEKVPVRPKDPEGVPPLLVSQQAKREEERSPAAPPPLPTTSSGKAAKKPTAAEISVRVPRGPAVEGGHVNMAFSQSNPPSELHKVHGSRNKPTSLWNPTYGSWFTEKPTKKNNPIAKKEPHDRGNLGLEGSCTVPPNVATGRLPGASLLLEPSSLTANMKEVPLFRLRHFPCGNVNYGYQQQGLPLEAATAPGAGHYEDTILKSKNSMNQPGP
Description: as §1

CAMK2D = target: T15, CAMK2D (Homo sapiens, UniProt Q13557); assay: scanMAX Kinase analysis panel (DiscoverX); format: binding; conditions: 1 μM in DMSO
T15 construct: purchased DiscoverX
Description: as §1

GAK = target: T16, GAK (Homo sapiens, UniProt O14976); assay: scanMAX Kinase analysis panel (DiscoverX); format: binding; conditions: 1 μM in DMSO
T16 construct: purchased DiscoverX
Description: as §1

PC-9 lung cancer cells = assay: Anticancer effect in mouse model with PC-9 lung cancer cells; format: in vivo, Balb/c Nude Mice; conditions: PC-9 model
Experimental: The PC-9 cell line was purchased from NanJing Cobioer Biological Technology Co., Ltd. Cells were kept in RPMI-1640 containing 10% FBS, and cultured in a 37° C. humidified cell culture incubator at 5% […]. All animal experiments were carried out according to the Animal Use and Management Guidelines of Shanghai Medicilon Inc. Under sterile conditions, 2×10^6 PC-9 tumor cells (0.1 mL, cell:Matrigel®=1:1) was administered to the right waist of each animal by S.C. administration. Tumor size and animal body weight were measured twice weekly, and clinical symptoms were recorded daily. The mice will be administered individually according to most recent body weight. The tumors were measured using calipers using two measurements, length (a) and width (b). The volume of the tumors was calculated individually as follows, from the two measured diameters of the tumors: tumor volume (mm^3)=(a×b^2)/2.

CAL-27 = assay: EGFR expression after treatment, western blot or phosphoarray; format: cell-based; conditions: FIG. 7
Experimental: For the Ba/F3 EGFR L858R/T790M/C797S cell line, Ba/F3 naive cells purchased from DSMZ were transfected with EGFR L858R/T790M/C797S […] DNA using lipofectamine, and a cell line selected using 1 μg/ml puromycin for 2 weeks was used. Here, the culture medium used was RPMI-1640 with 10% FBS and 1% penicillin streptomycin. The NCI-H2228 and CAL-27 cell lines were purchased from ATCC, and for culturing RPMI-1640 with 10% FBS and 1% penicillin streptomycin was used for NCI-H2228, while for CAL-27 DMEM with 10% FBS and 1% penicillin streptomycin was used.
As needed, culturing was performed for 1 hour with Cyclohexamine at 30 μg/mL concentration, followed by 15 minutes EGF treatment at a concentration of 100 ng/mL. For the phosphoarray experiment, DYRK1a siRNA was reacted with HEK293T cells for 48 hours at 30 nM concentration, confirming inhibition of DYRK1a expression in the cells. These were used as the control for the main experiment.

H1975 cell line = assay: Lung cancer cell colony formation inhibition; format: cell-based; conditions: concomitant treatment with Gefitinib or Osimertinib, vs single treatment or Harmine, from 10 days, FIG. 1
Description: Specifically, the H1975 cell line was purchased from the ATCC (American Type Culture Collection, and RPMI-1640 with 10% FBS and 1% penicillin streptomycin was used.
The remaining colony-forming cells were fixed with methanol (1%) and formaldehyde (1%), then dyed with 0.5% crystal violet before photographing each well.

3LL lung cancer = assay: Anticancer effect in 3LL lung cancer transplant mouse model; format: in vivo, female C57BL/6 mouse
Experimental: The 3LL cells were cultured in Hams F10:L15=3:7 culture medium, the EMT-6 cells were cultured in Waymouth's MB 752/1 culture medium, and the MC38 cells were cultured in a DMEM culture medium with 10% FBS and 1% penicillin streptomycin, at 37° C. in a 5% CO2 humidified cell culture incubator.
The mouse PD-1 antibody (BE-0146), PD-L1 antibody (BE-0101), and CTLA-4 antibody (BE-0131) were purchased from BioXcell.
All animal tests were carried out through WuXi AppTec.

T1 sequence (Q9UM73 19-1620 C1156Y): as the sequence (Q9UM73 19-1620) above, with C1138Y counted along it

`CCNc1cc(Nc2ccc(C(=O)N3CCC(N4CCOCC4)CC3)cc2OC)nc2[nH]cc(C(F)(F)F)c12` [Compound 1, (4-((4-(ethylamino)-3-(trifluoromethyl)-1H-pyrrolo[2,3-b]pyridine-6-yl)amino)-3-methoxyphenyl) (4-morpholinopiperidine-1-yl)methanone] gave an inhibition at 1 µM (ALK(C1156Y)) of at least 59%, an inhibition at 1 µM (LRRK2) of 40 to 59% and an inhibition at 1 µM (PHKG1) of at least 59%. It also gave an inhibition at 1 µM (MYLK) of at least 59%, an inhibition at 1 µM (ABL1-nonphosphorylated) of 40 to 59% and an inhibition at 1 µM (STK33) of at least 59%. The inhibition at 1 µM [1] was 40 to 59%, the inhibition at 1 µM (JNK1) was at least 59% and the inhibition at 1 µM (MAPKAPK2) was 40 to 59%. It also gave an inhibition at 1 µM (PLK4) of 40 to 59%, an inhibition at 1 µM (PHKG2) of at least 59% and an inhibition at 1 µM (LRRK2 (G2019S)) of at least 59%. For the same compound, the inhibition at 1 µM (ALK (L1196M)) was at least 59%, the inhibition at 1 µM (ALK) was at least 59% and the inhibition at 1 µM (CAMK2D) was 40 to 59%. The inhibition at 1 µM (GAK) was at least 59%, the anticancer effect (PC-9 lung cancer cells; Compound 1 20 or 40 mg/kg concomitant with Gefitinib 10 mg/kg, PO QD, vs Gefitinib alone, FIG. 4) was “substantially reduced lung cancer (PC-9) cells” and the anticancer effect (PC-9 lung cancer cells; Compound 1 20 or 40 mg/kg concomitant with Osimertinib 3 mg/kg, PO QD, vs Osimertinib alone, FIG. 3) was “substantially reduced lung cancer (PC-9) cells”. The anticancer effect (PC-9 lung cancer cells; singular treatment with Compound 1, 40 mg/kg PO QD) was “no anticancer effect”, the EGFR expression (CAL-27) was “reduced EGFR expression” and the “p-EGFR (Y-1086) expression” value (CAL-27; phosphoarray, 2 μM, 48 hours) was “Reduction in expression”. For the same compound, the colony formation inhibition (H1975 cell line) was “substantially inhibit formation of lung cancer cell colonies”, the tumor suppression effect (3LL lung cancer; concomitant with PD-1, PD-L1 and CTLA-4 antibodies 10 mg/kg IP BIW, FIG. 6b) was “improved concomitant effect” and the tumor suppression effect (3LL lung cancer; singular treatment, 45, 60, 75 mg/kg po BID, FIG. 6a) was “insignificant tumor suppression effect”.
